The numbers were not newly measured in patent US20090170816A1, “COMBINATION COMPRISING SQUALENE, A PHOSPHOLIPID AND AN OMEGA 3 FATTY ACID FOR THE TREATMENT OF CANCER” (FARMALEIS S.L., priority 2005, published 2009), which cites them from elsewhere.

For one series, the system named is Colon cancer. The note with it: Table 1, source Carcinogenesis vol. 19 no. 2 pp. 287-290, 1998.
Series [1] has as its system chemically-induced lung tumours. As to conditions: compared to animals not receiving squalene.

Turning to `CC(C)=CCC/C(C)=C/CC/C(C)=C/CC/C=C(\C)CC/C=C(\C)CCC=C(C)C` [Squalene], the Survival percentage in the series on Colon cancer is 50% ^(1). In addition, in series [1], the incidence of tumours result is “lower incidence of tumours”, the multiplicity of tumours entry is reported as “lower multiplicity” and the volume of tumours result is “smaller volume”.
